Assay results published in patent publication US12085575B2, “Compositions and methods for detecting proteinopathies” (BOARD OF SUPERVISORS OF LOUISIANA STATE UNIVERSITY AND …, priority 2011, dated 2024).

Key:
Format in all cases: cell-based, human
[1] = system: autophagosomes and autophagolysosomes; test: Cyt-ID and LysoTracker Red staining of autophagosomes, lysosomes and autophagolysosomes
Method: Autophagasome, lysosome and autophagolysosomes staining. Cells (100,000/point) were cultured on fibronectin-coated glass coverslips. Cells were treated with autophagy inhibitor Bafl (1 nM) (Sigma-Aldrich) for 18 hr. Cells were then exposed to UV radiation and allowed to recover in the presence of inhibitors for 3 h. Cells were then washed (2×1 min) with PBS and co-stained with Cyt-ID® (Cyt-ID® Autophagy Detection Kit from Enzo Lifesciences; Farmingdale, NY) and Lyso Tracker® Red DND-99 (Invitrogen) for 30 min at 37° C. in a CO2 incubator following manufacturer's protocol. Stained cells were then washed (2×1 min) with PBS and fixed with 4% paraformaldehyde for 20 min at room temperature. After washing with PBS (3×10 min), cells were mounted on slides in anti-fade mounting medium with DAPI (Invitrogen). Images were taken using a 63× oil immersion objective with a Leica DMRA2 upright microscope run through SlideBook software (Intelligent Imaging Innovations).
Autophagic flux was also monitored using Cyto-ID® and LysoTrack Red dyes. A-T and ATM+ cells were treated with Bafl (1 nM for 18 h) and then exposed to UV (25 mJ/m2) as indicated. Three hours after recovery in the presence of inhibitors, cells were co-stained with Cyt-ID® and LysoTracker Red® dyes. Fluorescence images of Cyt-ID® and LysoTracker Red® stained cells were made (Color images not shown). Green (autophagosomes; from Cyt-TD®-stained panels), red (lysosomes; from LysoTracker Red-stained panels), and yellow (autophagolysosomes; from merged panels) dots in A-T and ATM+ cells were counted manually using the ImageJ plug-in Cell Counter. Mean number of dots/cell is shown in FIGS. 11A and 11B, respectively. In FIGS. 11A and 11B, the number of autophagosomes (green dots) is represented by stippled bars; the number of lysosomes (red dots) is presented by lined bar; and the number of autophagolysosomes (yellow dots) is represented by clear (white) bars.
Bafilomycin inhibits autophagy at a late stage (47). Whether 3-methyl adenine (3-MA), an autophagy inhibitor known to inhibit autophagy at early stage by inhibiting formation of autophagosomes (56), could block UV-induced autophagic flux was tested in A-T/LV-control shRNA cells. Using Cyto-ID® and LysoTrack Red dyes as described herein in FIGS. 9A, 9B, 11A and 11B, the same criteria were used to judge autophagic activity in immunofluorescence analysis as described for FIGS. 11A and 11B.
The effect of 3-MA on UV-induced autophagic flux was tested in A-T/LV-ISG15 shRNA cells. A-T/LV-ISG15 shRNA cells were either left untreated or treated with 3-MA (10 nM for 18 h), and cells were then exposed to UV (25 mJ/m2). Three hours after recovery in the presence of the inhibitor, cells were co-stained with Cyt-ID® and LysoTracker Red® dyes. Fluorescence images of Cyt-ID® and LysoTracker Red® stained cells were made.

[2] = system: HA-polyubiquitylated proteins; test: UV-induced degradation of HA-polyubiquitylated proteins (anti-HA Western blot); settings: MG132 1 nm or 3-MA 10 nm for 18 h, UV 25 mJ/m2
Method: Immunoblotting Analysis of HA-ubiquitin conjugated proteins in cells exposed to UV radiation. Cells ([…]) were transfected with a hemagglutinin (HA)-ubiquitin plasmid using the PolyFect transfection reagent (Qiagen; Valencia, CA) as described (24). Twenty-four h after transfection, cells were treated with either proteasome inhibitor MG132 (1 μM) (Boston Biochemicals; Cambridge, MA) or autophagy inhibitor Bafilomycin A1 (Bafl) (1 nM) (Sigma-Aldrich) or 3-Methyladenine (3-MA) (100 nM) for 18 h. Cells were exposed to UV radiation (25 mJoules, using BioRad GS Gene Linker™ UV Chamber) and/or left untreated. Cells were then allowed to recover in the presence of inhibitors for 3 hr. Cell lysis, SDS-PAGE, and immunoblotting analysis to detect HA-ubiquitin conjugated proteins using anti-HA antibodies was carried out as described herein.
Decrease in the steady state levels of polyubiquitylated proteins could be due to their increased deubiquitylation or increased degradation via the 26S proteasome. Also, the ubiquitin antibody used in the experiment herein is known to cross-react with free ISG15/UCRP (44), and ISG15 protein is elevated in A-T cells (20). An HA-ubiquitin construct was transfected and then the steady state levels of the HA-polyubiquitylated proteins was assessed (to rule out the possibility of protein polyubiquitylation versus protein polyISGlyation), in the absence or presence of the proteasome inhibitor MG132 (to rule out the possibility of protein deubiquitylation versus protein degradation), in UV treated A-T and ATM+ cells. In FIG. 8B, A-T and ATM+ cells were transfected with a HA-ubiquitin construct. Cells were then treated with MG132 (1 μM) or Bafl (1 nM) for 18 hours and exposed to UV radiation (25 mJ/m2). After recovery in the presence of inhibitors for an additional three hours, cells were lysed. Cell extracts were analyzed by Western blotting for HA-polyubiquitylated proteins and actin using anti-HA and anti-actin antibodies respectively. Intensity of the total HA-polyubiquitylated proteins was quantitated using BioRad Quantity One software and results shown in FIG. 8C.
To complement the results shown in FIG. 8B, another construct was used that expresses HA-ubiquitin and that can preferentially make polyubiquitin chains linked through Lys48 on the substrates (20). In FIG. 8D, A-T and ATM+ cells were transfected with HA-Lys48 only ubiquitin construct. The inhibitor and UV treatments, cell lysis, SDS-PAGE, and immunoblotting analysis to detect HA-ubiquitin conjugated proteins using anti-HA antibodies was carried out as described herein. The experiment was repeated two times with the reproducible results. Similar results were obtained using this distinct HA-ubiquitin construct (FIG. 8D) as obtained herein (FIG. 8B); UV induced MG132- and Bafilomycin-resistant degradation of HA-Lys48-linked polyubiquitylated proteins in A-T cells, but not in ATM+ cells.
For FIG. 14A, HA-ubiquitin-transfected A-T/LV-control shRNA cells were exposed to UV (25 mJ/m2). After three hours of recovery, assessment of HA-polyubiquitylated proteins was carried out as described herein for FIG. 8B. In FIG. 14B, HA-ubiquitin-transfected A-T/LV-control shRNA cells were treated with Bafl (1 nm for 18 h). Cells were then exposed to UV (25 mJ/m2). After three hours of recovery in the presence of the inhibitor, assessment of HA-polyubiquitylated proteins was carried out as described for FIG. 14A. For FIG. 14C, HA-ubiquitin-transfected A-T/LV-control shRNA cells were treated with MG132 (1 nm for 18 h). Cells were then exposed to UV (25 mJ/m2). After three hours of recovery in the presence of the inhibitor, assessment of HA-polyubiquitylated proteins was carried out as described for FIG. 14A. For FIG. 14D, HA-ubiquitin-transfected A-T/LV-control shRNA cells were treated with 3-MA (10 nm for 18 h). Cells were then exposed to UV (25 mJ/m2). […]

[3] = system: polyubiquitylated proteins; test: CHX chase of polyubiquitylated proteins in FT169A cells; settings: FT169A (ATM+) cells
Method: To test whether the defective ubiquitin-mediated degradation of cellular proteins contributes to neurodegeneration in A-T, the rate of degradation of overall cellular polyubiquitylated proteins was monitored in FT169A (A-T) (ATM null) and FT169A (ATM+) (ATM reconstituted FT169A) isogenic cells as described (71) using the protein synthesis inhibitor cycloheximide (CHX) (Sigma-Aldrich). In FIG. 1A, FT169A (A-T) (lanes 1-4) and FT169A (ATM+) (lanes 5-8) cells were treated with the protein synthesis inhibitor CHX (10 μg/ml) for 0, 1, 3, and 6 hours. Cell lysates were analyzed using discontinuous (15%) SDS-PAGE followed by immunoblotting with anti-ubiquitin antibody. The symbols * and ** mark the position of high-molecular-weight (HMW) polyubiquitylated proteins. Quantitation of the high-molecular-weight (HMW) polyubiquitylated proteins (shown as **) is shown in the bar graph.
The ubiquitin sequence contains seven lysine residues (at positions 6, 11, 27, 29, 33, 48, and 63) and polyubiquitin chain assembly can occur at any of these lysine residues (74). Lys48-linked polyubiquitylated proteins are targeted for destruction via the 26S proteasome (74). […] The amount of polyubiquitylated proteins and the rate of turnover of polyubiquitylated proteins (see the HMW protein species marked by *) were determined under the same conditions as in FIG. 1B using the anti-HA antibody in immunoblotting. […]

Mfn2 = Mfn2 modification and degradation in A-T/LV shRNA cells treated with mitochondrial depolarizing agents; settings: ISG15 overexpressing A-T cells, 24 hr
Method: Immunoblotting Analysis of Mitochondrial Proteins—Mitochondria were isolated from A-T/LV control and ISG15 shRNA cells using the Miochondrial Isolation Kit (Thermo Scientific Company, 89874). The Dounce homogenization protocol described by the manufacturer was used to isolate mitochondria from cells. Mitochondrial pellets were resuspended in lysis buffer containing 50 mM Tris pH 7.5 and 4% (v/v) SDS. Samples were homogenized and boiled for 10 min. Lysates containing equal protein were then mixed with 6× Laemmli SDS sample buffer (3× final concentration). Samples were boiled again and mitochondrial proteins were analyzed by SDS-PAGE. Immunoblotting analyses using either anti-ISG15 (raised against human ISG15) (20), anti-ubiquitin (gift from Dr. Arthur Haas, at LSUHSC—New Orleans), or anti-mitofusin 2 (Abcam, ab88569) antibodies were carried out using the ECL Western procedure (Pierce, 34076) and the BioRad VersaDoc Imaging System (BioRad). Immunoblotting Analysis of HA Polyubiquitylated Proteins in Cells: Cells were transfected with HA-ubiquitin using the PolyFect transfection reagent (Qiagen, 301105). Twenty four hours after transfection, mitochondria were isolated as described above. Mitochondrial lysis, SDS-PAGE, and immunoblotting analysis to detect HA-ubiquitin conjugated proteins using anti-HA antibodies were carried out as described above. Immunoblotting Analysis of Mfn2 in Cells: Cells were lysed in lysis buffer containing 50 mM Tris-HCl, pH 7.5, 2% SDS, and protease inhibitor cocktail. Lysates were sonicated, boiled, and cleared by centrifugation. Lysates containing equal protein were then mixed with 6× Laemmli SDS sample buffer (3× final concentration). Samples were boiled again and proteins were separated by 15% SDS-PAGE. Immunoblotting analysis was carried out using anti-Mfn2 antibodies (Abcam) as described above. Intensity of the Mfn2 bands was quantitated using BioRad Quantity One software. Statistical analysis—Statistical analysis was carried out using GraphPad software.
Many outer mitochondrial membrane (OMM) proteins are ubiquitylated and degraded via the 26S proteasome prior to mitophagy in cells treated with the mitochondrial depolarizing agents (28,29). To test whether ISG15 inhibits polyubiquitylation of OMM proteins, we assessed the fate of Mfn2, an OMM protein and proteasome substrate, in A-T/LV-control and A-T/LV-ISG15-silenced cells treated with two different mitochondrial depolarizing agents, valinomycin and carbonylcyanide m-chlorophenylhydrazone (CCCP). Consistent with the literature reports (29,35,36), we observed a ladder of high molecular weight anti-Mfn2 cross-reactive bands above the 86 kDa Mfn2 protein band that is reminiscent of polyubiquitylation, in both ISG15-silenced and ISG15 overexpressing A-T cells (FIGS. 34 A and B, left panels). The endogenous level of these high molecular weight Mfn2 cross-reactive bands was remarkably higher in ISG15-silenced as compared to the ISG15-overexpressing A-T cells in the absence of any drugs (FIGS. 34A and B, first panels, compare lanes 1 and 4). […] In contrast, the level of these Mfn2 cross-reactive high molecular weight bands decreased under the same drug treatment conditions in ISG15-silenced A-T cells (FIGS. 34A and B, first panels, lanes 4-6, and the accompanying bar graph in the second panel for quantitation). […] The bar graphs in FIGS. 34A and B, third panels, show mean values of the ratio between free Mfn2 (86 kDa band) and actin proteins (±SEM) in CCCP-treated A-T/LV-control and ISG15 shRNA cells measured from eight independent experiments, and valinomycin-treated A-T/LV-control and ISG15 shRNA cells measured from three independent experiments respectively.

## Cn1cnc(N)c2ncnc1-2 [3-MA, 3-Methyladenine]
[1]; 3-MA-treated A-T/LV-control shRNA cells, untreated 3.8
  yellow mean dots/cell (autophagolysosomes): 0.5 dots/cell
[1]; 3-MA-treated A-T/LV-control shRNA cells, untreated 4.6
  green mean dots/cell (autophagosomes): 0.16 dots/cell
[1]; A-T/LV-ISG15 shRNA cells, 3-MA 10 nM 18 h, UV 25 mJ/m2
  autophagic activity: No apparent change
[1]; A-T/LV-control shRNA cells co-treated with 3-MA and UV
  green dots and yellow dots: remained unaltered
[2]; A-T/LV-ISG15 shRNA (ISG15-silenced) cells
  UV-induced degradation of HA-polyubiquitylated proteins: induced degradation
[2]; A-T/LV-control shRNA cells
  UV-induced degradation of HA-polyubiquitylated proteins: markedly blocked

## C[C@@H]1C[C@@H]([C@H](O)CC2CC(=O)NC(=O)C2)C(=O)[C@@H](C)C1 [CHX, cycloheximide]
[3]; CHX 10 μg/ml, within 6 hours
  level of polyubiquitylated proteins reduced: more than 30%
[3]; CHX, within 3 hours
  cellular pool of Lys48-linked polyubiquitylated proteins reduced: more than 70%

## CC(C)[C@@H]1NC(=O)[C@H](C)OC(=O)[C@@H](C(C)C)NC(=O)[C@@H](C(C)C)OC(=O)[C@H](C(C)C)NC(=O)[C@H](C)OC(=O)[C@@H](C(C)C)NC(=O)[C@@H](C(C)C)OC(=O)[C@H](C(C)C)NC(=O)[C@H](C)OC(=O)[C@@H](C(C)C)NC(=O)[C@@H](C(C)C)OC1=O [valinomycin]
Mfn2
  free Mfn2 protein level: slightly increased
